The values below come from patent US20220389422A1, “IONIZABLE CATIONIC LIPIDS FOR RNA DELIVERY” (Arcturus Therapeutics, Inc., priority 2021, published 2022).

The subject of one series is hEPO mRNA. Briefly: hEPO mRNA expression evaluation (hEPO-LNPs). In kind it is in vivo, Balb/c mice. To be noted: intravenous (tail vein), serum hEPO after 6 hr, ELISA; for EPO expression (ng/mL)_0.03 mpk: 0.03 mg/kg; for EPO expression (ng/mL)_0.1 mpk: 0.1 mg/kg. As for the experimental part: Protocol for hEPO mRNA Expression Evaluation Lipid formulations comprising a hEPO mRNA below were evaluated for their ability to express hEPO in vivo according to the protocol of this example. All animal experiments were conducted using institutionally-approved protocols (IACUC). In this protocol, female Balb/c mice at least 6-8 weeks of age were purchased from Charles River Laboratory. The mice were intravenously injected with hEPO-LNPs via the tail vein with one of two dose levels of hEPO (0.1 and 0.03 mg/kg). After 6 hr, blood was collected with serum separation tubes, and the serum was isolated by centrifugation. Serum hEPO levels were then measured using an ELISA assay (Human Erythropoietin Quantikine IVD ELISA Kit, R&D Systems, Minneapolis, Md.).

A further series in a line: Measured pKa. In kind it is physicochemical. To be noted: read-out: (pKa) measured pKa in parenthesis.
In the next series the test system is factor VII. Briefly: Factor VII knock down evaluation (LNP with FVII siRNA). In kind it is in vivo, Balb/C mice. To be noted: intravenous, plasma FVII after 48 h, relative to saline-treated controls; for FVII KD % _ 0.01 mpk: 0.01 mg/kg; for FVII KD % _ 0.03 mpk: 0.03 mg/kg. As for the experimental part:
Lipid formulations comprising a FVII siRNA further described below were evaluated for their knockdown activity using the protocol of this example. In the FVII evaluation, seven to eight week-old, female Balb/C mice were purchased from Charles River Laboratories (Hollister, Calif.). The mice were held in a pathogen-free environment and all procedures involving the mice were performed in accordance with guidelines established by the Institutional Animal Care and Use Committee (IACUC). Lipid nanoparticles containing factor VII siRNA were administered intravenously at a dosing volume of 10 mL/kg and two dose levels (0.03 and 0.01 mg/kg). After 48 h, the mice were anesthetized with isoflurane and blood was collected retro-orbitally into Microtainer® tubes coated with 0.109 M sodium citrate buffer (BD Biosciences, San Diego, Calif.) and processed to plasma. Plasma specimens were tested for factor VII levels immediately or stored at −80° C. for later analysis. Measurement of FVII protein in plasma was determined using the colorimetric Biophen VII assay kit (Aniara Diagnostica, USA). Absorbance was measured at 405 nm and a calibration curve was generated using the serially diluted control plasma to determine levels of factor VII in plasma from treated animals, relative to the saline-treated control animals.

A short description of another series: Mouse plasma stability. To be noted: 37° C., starting concentration 1 μM, 120 min, LC-MS. In kind it is in vitro ADME, CD-1 mouse. The protocol:
Lipid stock solution was prepared by dissolution of the lipid in isopropanol at the concentration of 5 mg/mL. A requisite volume of the lipid-isopropanol solution was then diluted to 100 μM concentration at a total volume of 1.0 mL with in 50:50 (v/v) ethanol/water. Ten microliters of this 100 μM solution was spiked into 1.0 mL of mouse plasma (BioIVT, Cat. No.: MSE00PLNHUNN, CD-1 mouse, anticoagulant: sodium heparin, not filtered) that was pre-warmed to 37° C. and was stirred at 50 rpm with a magnetic stir bar. The starting concentration of lipids in plasma was thus 1 μM. At time points 0, 15, 30, 45, 60 and 120 min, 0.1 mL of the plasma was withdrawn from the reaction mixture and the protein was precipitated by adding 0.9 mL of ice-cold 4:1 (v/v) acetonitrile/methanol with 1 μg/mL of a selected internal standard lipid added. After filtration through a 0.45 micron 96-well filtering plate, the filtrates were analyzed by LC-MS (Thermo Fisher's Vanquish UHPLC-LTQ XL linear ion trap Mass Spectrometer); Waters XBridge BEH Shield RP18 2.5 µm (2.1×100 mm) column with its matching guard column. Mobile phase A was 0.1% formic acid in water, and mobile phase B was 0.1% formic acid in 1:1 (v/v) acetonitrile/methanol. Flow rate was […]. Elution gradient was: Time 0-1 min: 10% B; 1-6 min: 10%-95% B; 6-8.5 min: 95% B; 8.5-9 min: 95%-10% B; 9-10 min: 10% B. Mass spectrometry was in positive scanning mode from 600-1100 m/z. The peak of the molecular ion of the lipids was integrated in the extracted ion chromatography
(XIC) using Xcalibur software (Thermo Fisher). The relative peak area compared to T=0, after normalization by the peak area of the internal standard, was used as the percentage of the lipid remaining at each time point. T1/2 values were calculated using the first-order decay model.

Series [1] is described as follows: In vivo biodegradability assay (lipid in mouse liver). Details: species or system mice. To be noted: for concentration at 48 h: 0.03 mg/Kg dose, read-out: In vivo degradability ng/g of tissue at 48 h_0.03 mpk; for In vivo degradability ng/tissue at 48 h_0.1 mpk: 48 h, 0.1 mg/Kg dose. As for the experimental part: In vivo biodegradability assay was performed to assess the biodegradability of lipids in the LNP. Briefly, mice were injected with either 0.1 or 0.03 mg/Kg dose and after 24 or 48 hours mice livers were collected. To measure the concentration of lipids in the mouse liver, liver samples were homogenized in appropriate buffer in 1-10 dilution and mixed with the same amount of stabilized plasma. The samples were then mixed with organic solvents spiked with internal standard to precipitate proteins. After centrifugation, supernatant was diluted further with organic solvent before sample analysis by LC-MS. In LC-MS analysis, positive electrospray ionization was used, and multiple reaction monitoring (MRM) parameters were set up to specifically target the lipid analyte and internal standard. Calibration standards were prepared in stabilized plasma and mixed with same amount of homogenization buffer before protein precipitation. Quality control samples with known amounts of lipid was prepared in blank liver homogenate to monitor the precision and accuracy of the assay.

With `CCCCCCCC(CCCCCCC)OC(=O)CCCC(CCCC(=O)OC(CCCCCCC)CCCCCCC)SC(=O)CCCN(C)C` [ATX-202], in the series on hEPO mRNA, the “EPO expression (ng/mL)_0.03 mpk” value turned out to be 447 ng/mL and the “EPO expression (ng/mL)_0.1 mpk” value was 531 ng/mL. Besides, the pKa in the series “Measured pKa” worked out at 6.17. In the series on factor VII, the “FVII KD % _ 0.01 mpk” value came to 61.42% and the “FVII KD % _ 0.03 mpk” value is reported as 83.22%.

With `CCCCCCCC(CCCCCCC)OC(=O)CCCC(CCCC(=O)OC(CCCCCCC)CCCCCCC)COC(=O)CCCN(C)C` [ATX-200, 1,9-bis(pentadecan-8-yl) 5-([[4-(dimethylamino)butanoyl]oxy]methyl) nonanedioate], in the series with hEPO mRNA, the “EPO expression (ng/mL)_0.03 mpk” value stood at 494 ng/mL and the “EPO expression (ng/mL)_0.1 mpk” value came to 828 ng/mL. For the same molecule, the pKa in “Measured pKa” came out at 6.78. In the series with factor VII, the “FVII KD % _ 0.01 mpk” value came out at 87.1% and the “FVII KD % _ 0.03 mpk” value is on record as 97.5%.

`CCCCCCC(CCCCCC)COC(=O)CCCCCC(CCCCCC(=O)OCC(CCCCCC)CCCCCC)OC(=O)CCCN(C)C` [ATX-231]: the “Percent of lipid remaining in mouse plasma after 2 h” value (“Percent of lipid remaining” below) in “Mouse plasma stability” was 89%. Besides, in series [1], the concentration at 48 h was found to be 0 ng/g and the “In vivo degradability ng/tissue at 48 h_0.1 mpk” value (from here on “In vivo degradability ng/tissue”) came to 0 ng/tissue. In the series with hEPO mRNA, the “EPO expression (ng/mL)_0.03 mpk” value came to 1706 ng/mL and the “EPO expression (ng/mL)_0.1 mpk” value was determined as 5446 ng/mL. Besides, in the series on factor VII, the “FVII KD % _ 0.01 mpk” value is given as 72% and the “FVII KD % _ 0.03 mpk” value stood at 86%.

For `CCCCCCCC(CCCCCCC)OC(=O)CCC(CCC(=O)OC(CCCCCCC)CCCCCCC)COC(=O)CCCN(C)C` [ATX-201], in the series with hEPO mRNA, the “EPO expression (ng/mL)_0.03 mpk” value was found to be 523 ng/mL and the “EPO expression (ng/mL)_0.1 mpk” value is 680 ng/mL. The pKa in the series “Measured pKa” turned out to be 6.74. For the same molecule, in the series with factor VII, the “FVII KD % _ 0.01 mpk” value was 87.4% and the “FVII KD % _ 0.03 mpk” value amounted to 97.5%.

Consider `CCCCCCCC(CCCCCCC)OC(=O)CCCC(CCCC(=O)OC(CCCCC)CCCCC)OC(=O)CCCN(C)C` (centres unmarked) [ATX-210], for which, in the series with hEPO mRNA, the “EPO expression (ng/mL)_0.03 mpk” value was 329 ng/mL and the “EPO expression (ng/mL)_0.1 mpk” value turned out to be 662 ng/mL. In addition, the pKa in “Measured pKa” turned out to be 6.53. For the same molecule, in the series with factor VII, the “FVII KD % _ 0.01 mpk” value stood at 87% and the “FVII KD % _ 0.03 mpk” value is 97.65%.

Consider `CCCCCC(CC)C(=O)OCCCCCCCCCC(CCCCCCCCCOC(=O)C(CC)CCCCC)OC(=O)CCCN(C)C` (centres unmarked) [Compound-10111, reference compound], for which the “Percent of lipid remaining” value in “Mouse plasma stability” stood at 91%. Further, in series [1], the concentration at 48 h turned out to be 566 ng/g and the “In vivo degradability ng/tissue” value was 2613 ng/tissue. For the same molecule, in the series on hEPO mRNA, the “EPO expression (ng/mL)_0.03 mpk” value came out at 105 ng/mL and the “EPO expression (ng/mL)_0.1 mpk” value was 213 ng/mL. In the series with factor VII, the “FVII KD % _ 0.01 mpk” value came to 89% and the “FVII KD % _ 0.03 mpk” value is 95%.

Consider `CCCCCCCC(CCCCCCC)OC(=O)CCCC(CCCC(=O)OC(CCCCCCC)CCCCCCC)OC(=O)CCCN(C)C` [ATX-193, 1,9-bis(pentadecan-8-yl)5-[[4-(dimethylamino)butanoyl]oxy] nonanedioate], for which, in the series with hEPO mRNA, the “EPO expression (ng/mL)_0.03 mpk” value was 264 ng/mL and the “EPO expression (ng/mL)_0.1 mpk” value stood at 498 ng/mL. For the same molecule, the pKa in “Measured pKa” turned out to be 6.35. Besides, in the series with factor VII, the “FVII KD % _ 0.01 mpk” value came to 95.6% and the “FVII KD % _ 0.03 mpk” value turned out to be 100%.

`CCCCCCC(CCCCCC)OC(=O)CCCCCC(CCCCCC(=O)OC(CCCCCC)CCCCCC)OC(=O)CCCN(C)C` [ATX-209]: in “Mouse plasma stability”, the “Percent of lipid remaining” value is given as 80%. Moreover, in series [1], the concentration at 48 h was 0 ng/g and the “In vivo degradability ng/tissue” value is 647 ng/tissue. In the series with hEPO mRNA, the “EPO expression (ng/mL)_0.03 mpk” value is reported as 65 ng/mL and the “EPO expression (ng/mL)_0.1 mpk” value is listed as 290 ng/mL. Moreover, in the series on factor VII, the “FVII KD % _ 0.01 mpk” value came to 65.7% and the “FVII KD % _ 0.03 mpk” value amounted to 90.6%.

As to `CCCCCCCC(CCCCCCC)COC(=O)CCCC(CCCC(=O)OC(CCCCCCC)CCCCCCC)OC(=O)CCCN(C)C` (centres unmarked) [ATX-232], in the series with hEPO mRNA, the “EPO expression (ng/mL)_0.03 mpk” value is 2115 ng/mL and the “EPO expression (ng/mL)_0.1 mpk” value is given as 510 ng/mL. For the same molecule, in the series on factor VII, the “FVII KD % _ 0.01 mpk” value amounted to 74% and the “FVII KD % _ 0.03 mpk” value stood at 90%.

One may read the pKa as the pH at which an ionisable group is half protonated.
